Results: patent publication US20050107474A1, “Pharmaceutical compositions for the treatment of infections of the respiratory system by pathogenic agents” (priority 2002, published 2005)
Several values for one entry are separate records, joined by “and”; a condition that tells them apart may be missing. Equal values may be shown once.

Key:
S. aureus biofilm [1] = assay: Disruption of fully consolidated biofilm (48 hours); format: cell-based, Staphylococcus aureus
Description: (§1) The effects of NAC and TAPh on the biofilm produced by S. aureus were evaluated on four strains of the microorganism designated 1393, 1876, 1880 and 1890.
(§2) The biofilm adhering to the walls of the microplates was washed with PBS, suspended in 10% sarcosyl and measured spectrophotometrically at 492 nm.
(§3) The same technique was employed for calculating the residual quantity of biofilm after treatment with NAC alone and combined with TAPh on S. aureus. For this purpose, biofilms with two different degrees of maturity: initial (5 hours) and fully consolidated (48 hours) were exposed to suitable concentrations of NAC (from 8 mg/ml to 0.007 mg/ml) with added TAPh at the concentrations that can be reached in vivo in the pulmonary tree.

S. aureus [2] = assay: Bacterial growth in broth culture with NAC; format: cell-based, Staphylococcus aureus; details: NAC up to maximum concentration 8 mg/ml
S. aureus biofilm [3] = assay: Biofilm formation in polystyrene microplates, crystal violet, spectrophotometric at 492 nm; format: cell-based, Staphylococcus aureus; details: for reduction of the biofilm (formation) / decrease of biofilm production: NAC 8 mg/ml, 24 hours
Description: as §1
Formation of the biofilms was quantified spectrophotometrically in polystyrene microplates with U-well geometry (Corning Incorporated, New York).
In more detail, the effect of NAC on biofilm formation was evaluated as follows: overnight broth cultures in tryptic soy broth (TSB) with glucose added (0.25%) (TSBG) were diluted 1:100 in TSBG. Appropriate dilutions of NAC at concentrations varying respectively from 8 mg/ml to 0.007 mg/ml were added to the suspensions (100 μl each). After incubation at 37° C. for 24 hours, the microplates were washed three times with 10 mM phosphate buffer pH 7.4 (PBS), treated with Bouin fixative and then stained with crystal violet (0.01%).
as §2

S. aureus [4] = assay: Viability (CFU/ml) of biofilm cells after sonication and seeding; format: cell-based, Staphylococcus aureus; details: maximum concentration, range over strains
Description: as §1
At the same time, the biofilms thus treated were submitted to sonication in order to disperse the cells that were still adhering, and these were seeded on rich medium after suitable dilution for calculating the vital elements surviving the various treatments.

P. aeruginosa = details: Antimicrob. Agents Chemother., 35, 1258, (1991); cited from earlier work
S. aureus biofilm [5] = assay: Disruption of biofilm at initial maturation (5 hours); format: cell-based, Staphylococcus aureus; details: for disruption of biofilm formed after 5 hours (initial maturation): maximum concentration (8 mg/ml)
Description: as §1, §2, §3

S. epidermidis = details: J. Ant. Chem., 39, 643, (1997); cited from earlier work

CC(=O)N[C@@H](CS)C(=O)O [NAC, N-acetyl-cysteine]
reduction values with NAC on its own, fully consolidated biofilms (range over strains, restated) (S. aureus biofilm [1]; NAC alone, second range printed): 58.1-62%
reduction of mucopolysaccharide material of fully consolidated biofilms (S. aureus biofilm [1]; maximum concentration, four strains assayed, one value each, strain per value not given): 62% and 60.5% and 58.1% and 65.5%
visible changes in bacterial growth (S. aureus [2]): did not cause visible changes in bacterial growth
reduction of the biofilm (formation) (S. aureus biofilm [3]; S. aureus 1393): 68.2%
decrease of biofilm production (S. aureus biofilm [3]; S. aureus 1876): 30.3%
decrease of biofilm production (S. aureus biofilm [3]; S. aureus 1880): 41.1%
reduction of the biofilm (formation) (S. aureus biofilm [3]; S. aureus 1890): 56.3%
glycocalyx production (S. aureus biofilm [3]; all the strains): inhibited glycocalyx production in all the strains
reduction in colony forming units per ml (CFU/ml) (S. aureus [4]; cells of mature (consolidated) biofilms): 33.7% to 70.6
reduction in colony forming units per ml (CFU/ml) (S. aureus [4]; cells of the youngest biofilms (initial maturation)): 33.7% to 91
disruption of biofilms (P. aeruginosa): ability to disrupt biofilms
reduction values with NAC on its own, initial biofilms (range over strains, restated) (S. aureus biofilm [5]; NAC alone, first range printed): 32.5-65.5%
disruption of biofilm formed after 5 hours (initial maturation) (S. aureus biofilm [5]; S. aureus 1876): 32.5%
disruption of biofilm formed after 5 hours (initial maturation) (S. aureus biofilm [5]; strain 1393): 61.1%
disruption of biofilm formed after 5 hours (initial maturation) (S. aureus biofilm [5]; strain 1880): 57.3%
disruption of biofilm formed after 5 hours (initial maturation) (S. aureus biofilm [5]; strain 1890): 58.6%
inhibition of biofilm formation (S. epidermidis): inhibit their formation
